Consider 4 compounds from ChEMBL document CHEMBL5143519, “Exploring disordered loops in DprE1 provides a functional site to combat drug-resistance in Mycobacterium strains” (Eur J Med Chem, 2022).

Experiment [1] has as its system Mycobacterium tuberculosis variant bovis. Put plainly: Antimycobacterial activity against Mycobacterium bovis BCG assessed as inhibition of bacterial growth incubated for 7 days by microplate alamar blue assay. Type of experiment: functional. The conditions noted are these: 168 h, time 7 day. (In general: Alamar Blue is a resazurin reagent that responds to reducing activity.)

For experiment [2] the test system is unchanged. The experiment is described as follows: Antimycobacterial activity against Mycobacterium bovis BCG assessed as reduction in bacterial colony forming units at 20 times MIC concentration measured after 21 days by time kill assay. The conditions noted are these: time 21 day. In kind it is functional.
For experiment [3] the test system is unchanged. The experiment is described as follows: Antimycobacterial activity against Mycobacterium bovis BCG overexpressing DprE1 assessed as inhibition of bacterial growth incubated for 7 days by microplate alamar blue assay. The conditions noted are these: 168 h, time 7 day. In kind it is functional.
For experiment [4] the test system is unchanged. Put plainly: Antimycobacterial activity against Mycobacterium bovis BCG overexpressing DprE1 assessed as reduction in bacterial colony forming units at 20 times MIC concentration measured after 21 days by time kill assay. In kind it is functional, organism-based. The conditions noted are these: time 21.0 day.
The test system is the same in experiment [5]. Put plainly: Antimycobacterial activity against Mycobacterium bovis BCG assessed as reduction in bacterial colony forming units at 20 times MIC concentration measured after 7 days by time kill assay. Type of experiment: functional, organism-based. The conditions noted are these: time 7.0 day.

Values after ≈ are worked out from the molar mass of the structure shown. Active and inactive are the calls of the source. The rule behind the calls is not given here.

For `CO[C@H]1/C=C/O[C@@]2(C)Oc3c(C)c(O)c4c(O)c(c(/C=N/N5CCN(C)CC5)c(O)c4c3C2=O)NC(=O)/C(C)=C\C=C\[C@H](C)[C@H](O)[C@@H](C)[C@@H](O)[C@@H](C)[C@H](OC(C)=O)[C@@H]1C` [RIFAMPIN], the MIC in experiment [1] and in experiment [3] was 0.35 µM (≈ 0.288 µg/mL) each time. Besides, the Activity in experiment [2] is reported as 3 log10CFU/ml.

On to `CCOC(=O)NC(=O)c1ccsc1NC(=O)c1nc2ccccc2s1`, for which the MIC in experiment [1] was 13.3 µM (≈ 4.99 µg/mL); in experiment [3] it was 66.5 µM (≈ 25 µg/mL). Besides, the Activity in experiment [2] came out at 3 log10CFU/ml.

Consider `O=C(NC(=O)c1ccsc1NC(=O)c1nc2ccccc2s1)OCC1CCC1`, for which the MIC in experiment [1] came out at 12 µM (≈ 4.99 µg/mL); in experiment [3], 30 µM (≈ 12.5 µg/mL).

Turning to `O=C(NC(=O)c1ccsc1NC(=O)c1nc2ccccc2s1)OCC1CC1`, the MIC in experiment [1] was found to be 3.11 µM (≈ 1.25 µg/mL); in experiment [3] it was 12.4 µM (≈ 4.99 µg/mL). Further, in experiment [2], the Activity is 3 log10CFU/ml. Further, the outcome in experiment [4] and in experiment [5] was Active.

The term MIC denotes the lowest concentration that inhibits growth of the organism.
